Measurements as given in patent US20260022246A1, “COLORING AGENT COMPOSITION, FILM, OPTICAL FILTER, AND NEAR INFRARED ABSORBING COMPOUND” (FUJIFILM Corporation, priority 2023, published 2026).

Experiments:
Type in all cases: physicochemical
[1] = Evaluation of absorption spectrum (maximal absorption wavelength in chloroform solution); conditions: for λmax (maximal absorption wavelength): chloroform solution, 3.0×10^−5 mol/L, 1 mm quartz cell; for Near infrared absorbing property: grade of λmax in chloroform solution
Procedure: The specific compound is diluted with chloroform to a concentration of […], and an absorbance of the obtained sample solution is measured with a spectrophotometer (UV-3600 Plus, manufactured by Shimadzu Corporation) using a 1 mm quartz cell. A maximal absorption wavelength (Amax) is measured from an absorption spectrum of the sample solution.
For each of Exemplary Compounds shown in Tables 1 and 2, a sample solution was prepared by diluting the compound with chloroform to a concentration of 3.0×10^−5 mol/L, and near infrared absorbability was evaluated.
For each sample solution, an absorbance was measured in a 1 mm quartz cell using a spectrophotometer (UV-3600 Plus, manufactured by Shimadzu Corporation).
A maximal absorption wavelength (Amax) was measured from the absorption spectrum of each sample solution. The results are shown in Tables 1 and 2, and the wavelength of Amax was evaluated according to the following standard.
• A: Amax was 1,150 nm or more. • B: Amax was less than 1,150 nm.

[2] = Evaluation of heat stability of polystyrene resin film (hot plate 180° C., 5 minutes); conditions: for Heat stability of resin composition: polystyrene resin film on glass, hot plate 180° C. for 5 minutes, absorbance reduction rate at λmax
Procedure: 30 mg of each of Exemplary Compounds and the comparative compounds described in the tables was dissolved in 8.9 g of methyl ethyl ketone and 1.1 g of a polystyrene resin (manufactured by Sigma-Aldrich Co. LLC) to prepare a resin composition.
The obtained resin composition was spin-coated on a glass substrate to form a coating film, and the obtained coating film was dried at 60° C. for 2 minutes to produce a resin film. […]
• A: absorbance reduction rate of Amax was less than 5%. • B: absorbance reduction rate of Amax was 5% or more and less than 10%. • C: absorbance reduction rate of Amax was 10% or more and less than 50%. • D: absorbance reduction rate of Amax was 50% or more. • X: solubility was insufficient, so that the film cannot be produced, which was not evaluable.

[3] = Evaluation of solubility in methyl ethyl ketone (MEK); set-up: key to Solubility in solvent: A: 1 g or more of the compound was stably dissolved in 300 g of MEK; B: 1 g was not dissolved in 300 g of MEK; X: decomposition was observed by measuring the absorption spectrum after the dissolution; conditions: for Solubility in solvent: stirred at room temperature for 30 minutes
Procedure: For each of Exemplary Compounds shown in Tables 1 and 2, a predetermined amount of the compound was added to a solvent of methyl ethyl ketone (MEK), and solubility was evaluated according to the following standard by stirring the mixture at room temperature for 30 minutes.
• A: 1 g or more of the compound was stably dissolved in 300 g of MEK. • B: 1 g was not dissolved in 300 g of MEK. • X: decomposition was observed by measuring the absorption spectrum after the dissolution.

[4] = Evaluation of kneading: transmittance at 1,150 nm of melt-kneaded resin film; conditions: kneaded with resin under the thermal conditions
Procedure: A resin composition, which was a kneaded material of the specific compound or the comparative compound and a resin, was prepared, and the following kneading evaluation was performed.
The specific compounds and comparative compounds shown in Table 3 below were weighed in the contents shown in Table 3, and a sample obtained by shaking and mixing 12.0 g of the resin shown in Table 3 was prepared. A polycarbonate resin (indicated as Polycarbonate in Table 3), a polystyrene resin, and an acrylic resin were used as the resin. In Table 3, the polycarbonate resin is indicated as Polycarbonate, the polystyrene resin is indicated as Polystyrene, and the acrylic resin is indicated as Acrylic.
The obtained sample was put into a supply port of a biaxial kneader (Labo Plastomill, manufactured by Toyo Seiki Seisaku-sho, Ltd.) and subjected to melt-kneading to obtain a resin composition as a kneaded material. The obtained resin composition was pressed using a heat press machine to obtain a resin film having a thickness of 0.15 mm.
In a case where a polycarbonate resin (SD PORYCA (registered trademark) 301-10, manufactured by Sumika Polycarbonate Co., Ltd.) was used as the resin, the melt-kneading temperature was set to 260° C. and the hot press temperature was set to 230° C.
In a case where a polystyrene resin (manufactured by Sigma-Aldrich Co. LLC) was used as the resin, the melt-kneading temperature was set to 200° C. and the hot press temperature was set to 180° C.
In a case where an acrylic resin (G1000, manufactured by Kuraray Co., Ltd.) was used as the resin, the melt-kneading temperature was set to 180° C. and the hot press temperature was set to 160° C.
A transmittance of the obtained resin film at a wavelength of 1,150 nm was measured with a spectrophotometer, and the measured value was evaluated according to the following standard. In Table 3, it is described in “Evaluation of transmittance at wavelength of 1150 nm”. As the transmittance is lower, the near infrared blocking property is better. […]

| Compound | λmax (maximal absorption wavelength) [1] | Near infrared absorbing property [1] | Heat stability of resin composition [2] | stability after dissolving in a solvent (measurement of the absorption spectrum) [3] | Solubility in solvent [3] | heat stability (in words, kneading evaluation) [4] | heat stability of the resin composition (in words) ([2]; polystyrene resin film) | absorbance at the maximal absorption wavelength on heating ([2]; resin film, heating at 130° C. as printed) | solubility in a solvent (in words) [3] |
| --- | --- | --- | --- | --- | --- | --- | --- | --- | --- |
| Cc1ccc(N(c2ccc(C)cc2)c2ccc([N+](=C3C=CC(=[N+](c4ccc(N(c5ccc(C)cc5)c5ccc(C)cc5)cc4)c4ccc(N(c5ccc(C)cc5)c5ccc(C)cc5)cc4)C=C3)c3ccc(N(c4ccc(C)cc4)c4ccc(C)cc4)cc3)cc2)cc1 [Comparative compound 2, reference compound] | 1250 nm | A (Amax was 1,150 nm or more) | D (absorbance reduction rate of Amax was 50% or more) | decomposed | X | low |  |  |  |
| CCCCN(CCCC)c1ccc([N+](=C2C=CC(=[N+](c3ccc(N(CCCC)CCCC)cc3)c3ccc(N(CCCC)CCCC)cc3)C=C2)c2ccc(N(CCCC)CCCC)cc2)cc1.[F][Sb-]([F])([F])([F])([F])[F].[F][Sb-]([F])([F])([F])([F])[F] [Comparative compound 4, reference compound] | 1100 nm | B (Amax was less than 1,150 nm) | D (absorbance reduction rate of Amax was 50% or more) |  | A (1 g or more of the compound was stably dissolved in 300 g of MEK) | low | low | significantly reduced | favorable |
| CCCCN(CCCC)c1ccc(N(c2ccc(N(CCCC)CCCC)cc2)c2ccc([N+](=C3C=CC(=[N+](c4ccc(N(c5ccc(N(CCCC)CCCC)cc5)c5ccc(N(CCCC)CCCC)cc5)cc4)c4ccc(N(c5ccc(N(CCCC)CCCC)cc5)c5ccc(N(CCCC)CCCC)cc5)cc4)C=C3)c3ccc(N(c4ccc(N(CCCC)CCCC)cc4)c4ccc(N(CCCC)CCCC)cc4)cc3)cc2)cc1.[F][Sb-]([F])([F])([F])([F])[F].[F][Sb-]([F])([F])([F])([F])[F] [Comparative compound 3, reference compound] | 1051 nm | B (Amax was less than 1,150 nm) | D (absorbance reduction rate of Amax was 50% or more) | decomposed | X | low |  |  |  |
| FC(F)(F)c1ccc(N(c2ccc([N+](=C3C=CC(=[N+](c4ccc(N(c5ccc(C(F)(F)F)cc5)c5ccc(C(F)(F)F)cc5)cc4)c4ccc(N(c5ccc(C(F)(F)F)cc5)c5ccc(C(F)(F)F)cc5)cc4)C=C3)c3ccc(N(c4ccc(C(F)(F)F)cc4)c4ccc(C(F)(F)F)cc4)cc3)cc2)c2ccc(C(F)(F)F)cc2)cc1.[O-][Cl+3]([O-])([O-])[O-].[O-][Cl+3]([O-])([O-])[O-] [A-7] | 1162 nm | A (Amax was 1,150 nm or more) | A (absorbance reduction rate of Amax was less than 5%) |  | A (1 g or more of the compound was stably dissolved in 300 g of MEK) |  |  |  |  |
| CCCCc1ccc(N(c2ccc(CCCC)cc2)c2ccc([N+](=C3C=CC(=[N+](c4ccc(N(c5ccc(CCCC)cc5)c5ccc(CCCC)cc5)cc4)c4ccc(N(c5ccc(CCCC)cc5)c5ccc(CCCC)cc5)cc4)C=C3)c3ccc(N(c4ccc(CCCC)cc4)c4ccc(CCCC)cc4)cc3)cc2)cc1.[O-][Cl+3]([O-])([O-])[O-].[O-][Cl+3]([O-])([O-])[O-] [A-8] | 1210 nm | A (Amax was 1,150 nm or more) | A (absorbance reduction rate of Amax was less than 5%) |  | A (1 g or more of the compound was stably dissolved in 300 g of MEK) |  |  |  |  |
| N#Cc1ccc(N(c2ccc([N+](=C3C=CC(=[N+](c4ccc(N(c5ccc(C#N)c(F)c5)c5ccc(C#N)c(F)c5)cc4)c4ccc(N(c5ccc(C#N)c(F)c5)c5ccc(C#N)c(F)c5)cc4)C=C3)c3ccc(N(c4ccc(C#N)c(F)c4)c4ccc(C#N)c(F)c4)cc3)cc2)c2ccc(C#N)c(F)c2)cc1F [A-19] | 1165 nm | A (Amax was 1,150 nm or more) | A (absorbance reduction rate of Amax was less than 5%) |  | A (1 g or more of the compound was stably dissolved in 300 g of MEK) |  |  |  |  |
| Cc1ccc(N(c2ccc(C)cc2)c2ccc([N+](=C3C=CC(=[N+](c4ccc(N(c5ccc(C)cc5)c5ccc(C)cc5)cc4)c4ccc(N(c5ccc(C)cc5)c5ccc(C)cc5)cc4)C=C3)c3ccc(N(c4ccc(C)cc4)c4ccc(C)cc4)cc3)cc2)cc1.F[B-](F)(F)F.F[B-](F)(F)F [A-29] | 1209 nm | A (Amax was 1,150 nm or more) | A (absorbance reduction rate of Amax was less than 5%) |  | A (1 g or more of the compound was stably dissolved in 300 g of MEK) |  |  |  |  |
